Experimental findings from patent US6723716B1, “7-acylamino-3-heteroarylthio-3-cephem carboxylic acid antibiotics and prodrugs thereof” (Essential Therapeutics, Inc., priority 1999, dated 2004) are described below.

Values after ≈ are worked out from the molar mass of the structure shown.

As usually defined, the MIC is the lowest concentration that inhibits growth of the organism.

The test system of series [1] is S. aureus ATCC29213. Kind of series: Human serum binding effect: MIC with and without human serum. Format: cell-based, Staphylococcus aureus. The conditions noted are these: 1:1 human serum:MHB. A digest of the protocol: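 Serum binding was estimated as the ratio of S. aureus ATCC29213 MIC in 1:1 human serum:Mueller-Hinton broth to MIC without serum. Compounds were serially 2-fold diluted, and wells received an early-log-phase inoculum at 1×10^6 CFU/mL final. Inoculum size was checked by colony counts on TSA after overnight incubation at 35 °C.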

In series [2] the test system is S. aureus 76 (Meth^R)(lac^+). Kind of series: Broth microdilution MIC (NCCLS). The note with it: Staphylococcus aureus. Type of series: cell-based. Summed up: (§1)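 NCCLS broth microdilution in Mueller-Hinton broth, final inoculum 5×10^5 CFU/mL from early-log cultures (Enterococcus diluted from overnight cultures), serial 2-fold compound dilutions. Plates incubated 24 h at 35° C, read at 650 nm and visually; MIC = lowest concentration preventing growth.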

For series [3], the system named is P. aeruginosa ATCC 27853. The series can be described thus: Broth microdilution MIC (NCCLS). Type of series: cell-based. The note with it: Pseudomonas aeruginosa, ATCC27853. Summed up:
as §1
A general note: Dilution methods test growth across graded concentrations, often in twofold steps.

The subject of series [4] is E. faecium ATCC 35667. Kind of series: Broth microdilution MIC (NCCLS). Type of series: cell-based. The note with it: Enterococcus faecium, ATCC35667. A digest of the protocol:
as §1

In series [5] the test system is S. aureus Spain #356 (Meth^R). Kind of series: Broth microdilution MIC (NCCLS). Format: cell-based. The conditions noted are these: Staphylococcus aureus, 24 h. Summed up:
as §1

For series [6], the system named is S. aureus ATCC 13709 (Meth^S). The series can be described thus: Broth microdilution MIC (NCCLS). Format: cell-based. The note with it: Staphylococcus aureus, ATCC13709, S. aureus ATCC 13709 (Meth^S); read-out: MIC. A digest of the protocol:
as §1

The subject of series [7] is S. aureus Col (Meth^R)(lac^−). Kind of series: Broth microdilution MIC (NCCLS). The note with it: Staphylococcus aureus. Type of series: cell-based. A digest of the protocol:
as §1

Series [8] has as its system E. faecalis VanB (Van^R). Kind of series: Broth microdilution MIC (NCCLS). Type of series: cell-based. The conditions noted are these: Enterococcus faecalis. Summed up: as §1
Series [9] has as its system E. coli ATCC25992. Kind of series: Broth microdilution MIC (NCCLS). Format: cell-based. The note with it: Escherichia coli. Summed up:
as §1

For series [10], the system named is S. aureus PC1 (Meth^S)(lac^+). Kind of series: Broth microdilution MIC (NCCLS). Format: cell-based. The note with it: Staphylococcus aureus. Summed up: as §1
Series [11] deals with S. aureus ATCC 29213. Kind of series: Broth microdilution MIC (NCCLS). Format: cell-based. The conditions noted are these: Staphylococcus aureus, ATCC29213; S. aureus ATCC 29213; Mueller-Hinton broth, 24 h at 35° C.; read-out: MIC. Summed up:
as §1

Series [12] has as its system E. faecium VanA (Van^R). The series can be described thus: Broth microdilution MIC (NCCLS). Format: cell-based. The note with it: Enterococcus faecium. Summed up: as §1
The subject of series [13] is S. aureus ATCC 33593 (Meth^R). Kind of series: Broth microdilution MIC (NCCLS). Format: cell-based. The note with it: Staphylococcus aureus, ATCC33593. Summed up:
as §1

Series [14] relates to E. faecium A491 (Amp^R). The series can be described thus: Broth microdilution MIC (NCCLS). Format: cell-based. The note with it: Enterococcus faecium. A digest of the protocol:
as §1

Series [15] deals with S. haemolyticus 05 (Meth^R). The series can be described thus: Broth microdilution MIC (NCCLS). Type of series: cell-based. The note with it: Staphylococcus haemolyticus. A digest of the protocol: as §1
For series [16], the system named is E. faecalis ATCC 29212. Kind of series: Broth microdilution MIC (NCCLS). Format: cell-based. The note with it: Enterococcus faecalis, ATCC29212. A digest of the protocol:
as §1

For the compound `NCCSCc1cnccc1SC1=C(C(=O)O)N2C(=O)[C@@H](NC(=O)/C(=N\O)c3nc(N)sc3Cl)[C@H]2SC1` [Cmpd 20, (7R)-7-[(Z)-2-(2-amino-5-chlorothiazol-4-yl)-2-(hydroxyimino)acetamido]-3-[3-(2-aminoethylthiomethyl)pyrid-4-ylthio]-3-cephem-4-carboxylic acid], the “Human serum binding effect (ratio of MIC value determined with and without human serum added)” value in series [1] is given as 3. Further, the minimal inhibitory concentration (MIC) in [2] was 1 µg/mL (≈ 1.66 µM); in series [3], above 32 µg/mL; in [4], 0.5 µg/mL (≈ 0.83 µM); in [5], 1 µg/mL (≈ 1.66 µM); in series [6] it was 0.13 µg/mL (≈ 0.216 µM); in [7], 0.5 µg/mL (≈ 0.83 µM). The minimum inhibitory concentration (MIC) in series [8] was 0.13 µg/mL (≈ 0.216 µM); in series [9], 8 µg/mL (≈ 13.3 µM); in series [10], 0.25 µg/mL (≈ 0.415 µM); in [11] it was 0.25 µg/mL (≈ 0.415 µM); in series [12] it was 0.25 µg/mL (≈ 0.415 µM); in series [13], 1 µg/mL (≈ 1.66 µM). The minimal inhibitory concentration (MIC) came to 8 µg/mL (≈ 13.3 µM) in series [14], 2 µg/mL (≈ 3.32 µM) in [15] and 0.06 µg/mL (≈ 0.0996 µM) in series [16].

For `NCCSCc1nc(SCCN)sc1SC1=C(C(=O)O)N2C(=O)[C@@H](NC(=O)/C(=N\O)c3nc(N)sc3Cl)[C@H]2SC1` [Cmpd 11, (7R)-7-[(Z)-2-(2-amino-5-chlorothiazol-4-yl)-2-(hydroxyimino)acetamido]-3-[4-(2-aminoethylthiomethyl)-2-aminoethylthio-1,3-thiazol-5-ylthio]-3-cephem-4-carboxylic acid], the “Human serum binding effect (ratio of MIC value determined with and without human serum added)” value in [1] is 4. Further, the MIC came to 0.5 µg/mL (≈ 0.732 µM) in series [2]; 2 µg/mL (≈ 2.93 µM) in series [3]; 0.5 µg/mL (≈ 0.732 µM) in series [4]; 0.5 µg/mL (≈ 0.732 µM) in series [5]; 0.13 µg/mL (≈ 0.19 µM) in series [6]; 0.5 µg/mL (≈ 0.732 µM) in series [7]. The MIC in series [8] is 0.06 µg/mL (≈ 0.0878 µM); in series [9], 2 µg/mL (≈ 2.93 µM); in [10], 0.13 µg/mL (≈ 0.19 µM); in series [11], 0.06 µg/mL (≈ 0.0878 µM); in [12], 4 µg/mL (≈ 5.85 µM); in series [13], 0.5 µg/mL (≈ 0.732 µM). Besides, the minimum inhibitory concentration (MIC) in series [14] came out at 4 µg/mL (≈ 5.85 µM); in series [15] it was 0.5 µg/mL (≈ 0.732 µM); in series [16], 0.06 µg/mL (≈ 0.0878 µM).

Regarding `NCCSCc1cnccc1SC1=C(C(=O)O)N2C(=O)C(NC(=O)/C(=N\O)c3csc(N)n3)C2SC1` (stereo not drawn) [Cmpd 19], the “Human serum binding effect (ratio of MIC value determined with and without human serum added)” value in [1] is reported as 2. For the same compound, the MIC in series [2] is 2 µg/mL (≈ 3.52 µM); in series [3], above 32 µg/mL; in [4], 2 µg/mL (≈ 3.52 µM); in series [5], 2 µg/mL (≈ 3.52 µM); in [6], 0.5 µg/mL (≈ 0.881 µM); in series [7], 2 µg/mL (≈ 3.52 µM). In addition, the MIC stood at 1 µg/mL (≈ 1.76 µM) in series [8]; 4 µg/mL (≈ 7.05 µM) in series [9]; 0.5 µg/mL (≈ 0.881 µM) in series [10]; 0.5 µg/mL (≈ 0.881 µM) in series [11]; 4 µg/mL (≈ 7.05 µM) in [12]; 2 µg/mL (≈ 3.52 µM) in series [13]. Moreover, the MIC in series [14] was above 32 µg/mL; in [15], 4 µg/mL (≈ 7.05 µM); in series [16], 0.5 µg/mL (≈ 0.881 µM).
